BindingDB's records for doi:10.1021/acs.jmedchem.0c01153 (Tokyo Medical and Dental University (Tmdu), 2021)

Columns and labels:
[1] = Inhibition of HIV1 KP-5mp1 gp120 interaction with CD4 human TZM-bl cells assessed as decrease in viral entry by MTT assay
[2] = Inhibition of HIV1 KP-5mvcR gp120 interaction with CD4 in human TZM-bl cells assessed as decrease in viral entry by MTT assay

Structure (SMILES) | IC50 [1] | IC50 [2]
COCCOCCOCCOCCOCCNC(=O)CCC(=O)OC(CCCNS(=O)(=O)c1ccc([N+](=O)[O-])cc1)C(=O)NCCN1CCC(NC(=O)C(=O)Nc2ccc(Cl)cc2)CC12CCCCC2 (stereo not given) | – | 570 nM
CC1(C)CC(NC(=O)C(=O)Nc2ccc(Cl)cc2)CC(C)(C)N1 [N-(4-chlorophenyl)-N'-(2,2,6,6-tetramethylpiperidin-4-yl)-oxalamide] | 6900 nM | –
N=C(N)NCCCCCCCCCCC(=O)NCCN1CCC(NC(=O)C(=O)Nc2ccc(Cl)cc2)CC12CCCCC2 (stereo not given) | 43000 nM | 720 nM
N=C(N)NCCCC[C@H](NC(=N)N)C(=O)NCCN1CCC(NC(=O)C(=O)Nc2ccc(Cl)cc2)CC12CCCCC2 (stereo not given in full) | 3900 nM | 290 nM
N=C(N)NCCCCCCCC(=O)NCCCC[C@H](NC(=N)N)C(=O)NCCN1CCC(NC(=O)C(=O)Nc2ccc(Cl)cc2)CC12CCCCC2 (stereo not given in full) | 2900 nM | 420 nM
COCCOCCOCCOCCOCCNC(=O)CCC(=O)N[C@@H](CCCNC(=N)N)C(=O)NCCN1CCC(NC(=O)C(=O)Nc2ccc(Cl)cc2)CC12CCCCC2 (stereo not given in full) | – | 130 nM
N=C(N)NCCCCC(=O)NCCCC[C@H](NC(=N)N)C(=O)NCCN1CCC(NC(=O)C(=O)Nc2ccc(Cl)cc2)CC12CCCCC2 (stereo not given in full) | 13000 nM | 330 nM
COCCOCCOCCOCCOCCNC(=O)CCC(=O)OC(CCCNC(=N)N)C(=O)NCCN1CCC(NC(=O)C(=O)Nc2ccc(Cl)cc2)CC12CCCCC2 (stereo not given) | – | 17 nM
N=C(N)NCCCCC(=O)NCCN1CCC(NC(=O)C(=O)Nc2ccc(Cl)cc2)CC12CCCCC2 (stereo not given) | 2100 nM | 120 nM
COCCOCCOCCOCCOCCNC(=O)CCC(=O)OC(CCCN)C(=O)NCCN1CCC(NC(=O)C(=O)Nc2ccc(Cl)cc2)CC12CCCCC2 (stereo not given) | – | 46 nM
COCCOCCOCCOCCOCCOCCOCCOCCOCCOCCOCCOCCNC(=O)CCC(=O)N[C@@H](CCCNC(=N)N)C(=O)NCCN1CCC(NC(=O)C(=O)Nc2ccc(Cl)cc2)CC12CCCCC2 (stereo not given in full) | – | < 100 nM
COCCOCCOCCOCCOCCOCCOCCOCCOCCOCCOCCOCCOCCOCCOCCOCCOCCOCCOCCOCCOCCOCCOCCOCCNC(=O)CCC(=O)N[C@@H](CCCNC(=N)N)C(=O)NCCN1CCC(NC(=O)C(=O)Nc2ccc(Cl)cc2)CC12CCCCC2 (stereo not given in full) | – | < 100 nM

More lines, now with the values ahead:

IC50 [1] | IC50 [2] | Structure (SMILES)
4400 nM | 230 nM | N=C(N)NCC(=O)NCCCC[C@H](NC(=N)N)C(=O)NCCN1CCC(NC(=O)C(=O)Nc2ccc(Cl)cc2)CC12CCCCC2 (stereo not given in full)
– | 3400 nM | CCCCCCCCCCCCCCCCNC(=O)CCC(=O)OC(CCCNS(=O)(=O)c1ccc([N+](=O)[O-])cc1)C(=O)NCCN1CCC(NC(=O)C(=O)Nc2ccc(Cl)cc2)CC12CCCCC2 (stereo not given)
– | 1200 nM | CCCCCCCCCCCCCCCCNC(=O)CCC(=O)OC(CCCNC(=N)N)C(=O)NCCN1CCC(NC(=O)C(=O)Nc2ccc(Cl)cc2)CC12CCCCC2 (stereo not given)
> 100000 nM | – | N=C(N)NCCCCCCCC(=O)NCCN1CCC(NC(=O)C(=O)Nc2ccc(Cl)cc2)CC12CCCCC2 (stereo not given)
– | 250 nM | CCCCCCCCCCCCCCCCNC(=O)CCC(=O)OC(CCCN)C(=O)NCCN1CCC(NC(=O)C(=O)Nc2ccc(Cl)cc2)CC12CCCCC2 (stereo not given)
4800 nM | 880 nM | N=C(N)NCCCCCCCCCCC(=O)NCCCC[C@H](NC(=N)N)C(=O)NCCN1CCC(NC(=O)C(=O)Nc2ccc(Cl)cc2)CC12CCCCC2 (stereo not given in full)
